Reference: patent publication US7476514B2, “Method for monitoring the immune response and predicting clinical outcomes in transplant recipients” (Cylex, Inc., priority 2002, dated 2009)

Tested on: CD4 cells
Assay: Cylex Immune Cell Function Assay (ImmuKnow): PHA-stimulated intracellular ATP in CD4 cells from whole blood of treated transplant patient
Type: cell-based, human
Description: Whole blood (100 μl of a 1:4 dilution) was tested in quadruplicate with or without phytohemagglutinin (PHA) (2.5 μg/mL) overnight (15-18 hours in a CO2 incubator at 37° C.). Anti-human CD4 monoclonal antibody coated magnetic particles (Dynal Biotech A.S.A., Oslo, Norway) were added to immunoselect CD4 cells from both the stimulated and non-stimulated wells. After washing the CD4 cells selected on a strong magnet (Cylex™ Cat. 1050) a lysing reagent was added to release intracellular ATP. A luciferin/luciferase mixture was then added to the cell lysate. Within 30 minutes after addition of enzyme, the bioluminescent product was measured in a luminometer (PHL Mediators, Austria or Berthold, Maryville, Tenn., or Turner Designs, Sunnyvale, Calif.) (See FIG. 1). The amount of light emitted (emission maximum 562 nm) was compared to a standard curve generated with ATP calibrators (0, 1, 10, 100, 1000 ng/mL). The concentration of ATP (ng/mL) in each sample was then calculated from the calibration curve using an Excel-based program provided by Cylex™.
(§1) To perform the assay, 200 μl of sodium heparin anticoagulated whole blood was diluted, aliquoted into wells of a 96-well microtiter plate and stimulated overnight with PHA. CD4+ cells were then selected using antibody-coated magnetic particles, washed and lysed to release intracellular ATP. The intensity of the patient's immune response was quantified by measuring the amount of intracellular ATP produced in response to stimulation.
as §1, with “Cylex™ Immune Cell Function Assay,” for “assay,”, “stimulation. Acute rejection was diagnosed by histopathologic studies of random and endoscopically guided multiple mucosal biopsies. […]” for “stimulation.”

Row | Compound | change of immune response (ATP) (Case Study 2, Solumedrol re-initiated after week 43, read at week 44) | immune response (ATP) (Case Study 2, multivisceral transplant recipient with acute rejection, week 39, after initial infusion of OKT3/FK and Solumedrol) [ng/mL] | immune response (ATP) (Case Study 2, after additional three-day course of OKT3) [ng/mL]
1 | C[C@H]1C[C@@H]2[C@H]([C@@H](O)C[C@@]3(C)[C@H]2CC[C@]3(O)C(=O)COC(=O)CCC(=O)[O-])[C@@]2(C)C=CC(=O)C=C12.[Na+] [Solumedrol, methylprednisolone] | dropped significantly |  | 
2 | OKT3: monoclonal antibody OKT3 (anti-CD3), antilymphocyte drug |  | 954 | 582
